SMILES strings stand for the structures.

The text below walks through data of US8969338B2, “Ethynyl derivatives” (Hoffmann-La Roche Inc., priority 2011, dated 2015).

This assay concerns the target T1, human mGlu5a receptor (Homo sapiens, UniProt P41594).
T1 construct: expressed in transfected cells
As to the kind of experiment: Intracellular Ca2+ mobilization assay (mGlu5 PAM). The assay is classed as cell-based. To be noted: for EC50: HEK-293 cells stably transfected with human mGlu5a, L-glutamate added at EC20 after pre-incubation with test compound, read-out: EC50 (nM) mGlu5PAM; for Emax: maximal response in % of the maximal stimulatory effect obtained with saturating concentrations of L-glutamate, read-out: Eff. (%). The method, then: A monoclonal HEK-293 cell line stably transfected with a cDNA encoding for the human mGlu5a receptor was generated; for the work with mGlu5 Positive Allosteric Modulators (PAMs), a cell line with low receptor expression levels and low constitutive receptor activity was selected to allow the differentiation of agonistic versus PAM activity. Cells were cultured according to standard protocols (Freshney, 2000) in Dulbecco's Modified Eagle Medium with high glucose supplemented with 1 mM glutamine, 10% (vol/vol) heat-inactivated bovine calf serum, Penicillin/Streptomycin, 50 μg/ml hygromycin and 15 μg/ml blasticidin (all cell culture reagents and antibiotics from Invitrogen, Basel, Switzerland).
About 24 hrs before an experiment, 5×10^4 cells/well were seeded in poly-D-lysine coated, black/clear-bottomed 96-well plates. The cells were loaded with 2.5 μM Fluo-4AM in loading buffer (1×HBSS, 20 mM HEPES) for 1 hr at 37° C. and washed five times with loading buffer. The cells were transferred into a Functional Drug Screening System 7000 (Hamamatsu, Paris, France), and 11 half logarithmic serial dilutions of test compound at 37° C. were added and the cells were incubated for 10-30 min, with on-line recording of fluorescence. Following this pre-incubation step, the agonist L-glutamate was added to the cells at a concentration corresponding to EC20 (typically around 80 μM) with on-line recording of fluorescence; in order to account for day-to-day variations in the responsiveness of cells, the EC20 of glutamate was determined immediately ahead of each experiment by recording of a full dose-response curve of glutamate.
Responses were measured as peak increase in fluorescence minus basal (i.e. fluorescence without addition of L-glutamate), normalized to the maximal stimulatory effect obtained with saturating concentrations of L-glutamate. Graphs were plotted with the % maximal stimulatory using XLfit, a curve fitting program that iteratively plots the data using Levenburg Marquardt algorithm. The single site competition analysis equation used was y=A+((B−A)/(1+((x/C)D))), where y is the % maximal stimulatory effect, A is the minimum y, B is the maximum y, C is the EC50, x is the log 10 of the concentration of the competing compound and D is the slope of the curve (the Hill Coefficient). From these curves the EC50 (concentration at which half maximal stimulation was achieved), the Hill coefficient as well as the maximal response in % of the maximal stimulatory effect obtained with saturating concentrations of L-glutamate were calculated.
A depression of the signal observed after addition of the EC20 concentration of L-glutamate was indicative of an inhibitory activity of the test compound.
In general terms: Calcium flux is commonly read through the fluorescence of an indicator in the cells.

T1 sequence (P41594 21-1180 isoform P41594-2 limits assumed): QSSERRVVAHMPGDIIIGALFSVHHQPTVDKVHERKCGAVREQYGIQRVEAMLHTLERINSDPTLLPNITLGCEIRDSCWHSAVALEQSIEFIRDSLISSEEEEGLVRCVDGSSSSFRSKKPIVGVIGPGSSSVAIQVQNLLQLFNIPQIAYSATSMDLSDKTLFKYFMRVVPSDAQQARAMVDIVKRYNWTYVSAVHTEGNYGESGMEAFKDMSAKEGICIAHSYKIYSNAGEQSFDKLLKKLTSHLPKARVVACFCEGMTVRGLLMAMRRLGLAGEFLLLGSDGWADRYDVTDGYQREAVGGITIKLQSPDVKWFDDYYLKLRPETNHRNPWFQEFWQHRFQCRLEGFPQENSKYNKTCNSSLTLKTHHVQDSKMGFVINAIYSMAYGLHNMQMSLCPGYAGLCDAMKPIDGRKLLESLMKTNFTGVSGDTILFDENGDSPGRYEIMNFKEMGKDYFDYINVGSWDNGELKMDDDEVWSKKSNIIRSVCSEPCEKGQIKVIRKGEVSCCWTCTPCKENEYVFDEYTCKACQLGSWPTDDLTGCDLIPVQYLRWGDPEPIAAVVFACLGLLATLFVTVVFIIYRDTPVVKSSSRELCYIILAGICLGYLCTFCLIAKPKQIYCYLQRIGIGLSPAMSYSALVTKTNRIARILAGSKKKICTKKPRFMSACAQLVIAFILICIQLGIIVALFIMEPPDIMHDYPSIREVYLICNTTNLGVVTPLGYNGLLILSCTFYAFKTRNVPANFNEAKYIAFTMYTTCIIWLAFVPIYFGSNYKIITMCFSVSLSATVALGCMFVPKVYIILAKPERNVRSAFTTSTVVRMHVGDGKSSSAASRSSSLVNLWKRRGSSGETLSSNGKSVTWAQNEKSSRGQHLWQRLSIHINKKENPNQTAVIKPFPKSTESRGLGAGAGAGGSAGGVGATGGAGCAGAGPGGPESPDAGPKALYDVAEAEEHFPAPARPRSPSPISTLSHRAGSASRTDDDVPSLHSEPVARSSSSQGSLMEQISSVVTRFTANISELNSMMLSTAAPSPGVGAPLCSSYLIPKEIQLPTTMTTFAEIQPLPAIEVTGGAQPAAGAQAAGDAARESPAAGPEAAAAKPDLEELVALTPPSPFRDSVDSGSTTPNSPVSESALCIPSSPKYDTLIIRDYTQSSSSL

A word on the EC50: it is the concentration needed to bring the measured effect to its halfway point. In the case of `CN1C(=O)N(c2ccc(C#Cc3cccc(F)c3)nc2)CC1(C)C` [Example 5, 1-[6-(3-Fluoro-phenylethynyl)-pyridin-3-yl]-3,4,4-trimethyl-imidazolidin-2-one], the 50% effective concentration (EC50) came to 19 nM and the Emax was 42%.

For the compound `CC1(C)CCN(c2ccc(C#Cc3ccccc3)nc2)C(=O)O1` [Example 2, 6,6-Dimethyl-3-(6-phenylethynyl-pyridin-3-yl)-[1,3]oxazinan-2-one], the EC50 is 96 nM and the Emax worked out at 85%.

`CN1N(c2ccc(C#Cc3ccccc3)nc2)C(=O)CC1(C)C` [Example 12, 1,5,5-Trimethyl-2-(6-phenylethynyl-pyridin-3-yl)-pyrazolidin-3-one]: the concentration for a half-maximal effect (EC50) was 40 nM and the Emax was 66%.

Consider `CC1(C)CC(=O)N(c2ccc(C#Cc3cccc(F)c3)nc2)N1` [Example 15, 2-[6-(3-Fluoro-phenylethynyl)-pyridin-3-yl]-5,5-dimethyl-pyrazolidin-3-one], for which the concentration giving a half-maximal response (EC50) was 68 nM and the Emax was 38%.

Turning to `CCN1C(=O)N(c2cnc(C#Cc3ccccc3)nc2)CC1(C)C` [Example 11, 3-Ethyl-4,4-dimethyl-1-(2-phenylethynyl-pyrimidin-5-yl)-imidazolidin-2-one], the EC50 came out at 79 nM and the Emax was 52%.

With `CN1C(=O)N(c2ccc(C#Cc3ccccc3)nc2)CC1(C)C` [Example 3, 3,4,4-Trimethyl-1-(6-phenylethynyl-pyridin-3-yl)-imidazolidin-2-one], the concentration for a half-maximal effect (EC50) came out at 15 nM and the Emax was 45%.

As to `CN1N(c2ccc(C#Cc3cc(F)ccc3F)nc2)C(=O)CC1(C)C` [Example 14, 2-[6-(2,5-Difluoro-phenylethynyl)-pyridin-3-yl]-1,5,5-trimethyl-pyrazolidin-3-one], the concentration giving a half-maximal response (EC50) was determined as 53 nM and the Emax came to 57%.

On to `CN1C(=O)N(c2ccc(C#Cc3ccc(F)cc3)nc2)CC1(C)C` [Example 4, 1-[6-(4-Fluoro-phenylethynyl)-pyridin-3-yl]-3,4,4-trimethyl-imidazolidin-2-one], for which the half-maximal effective concentration (EC50) was 50 nM and the Emax was found to be 44%.

For the compound `CN1N(c2ccc(C#Cc3cccc(F)c3)nc2)C(=O)CC1(C)C` [Example 13, 2-[6-(3-Fluoro-phenylethynyl)-pyridin-3-yl]-1,5,5-trimethyl-pyrazolidin-3-one], the half-maximal effective concentration (EC50) is 38 nM and the Emax stood at 63%.

For `CC1(C)CC(=O)N(c2cnc(C#Cc3ccccc3)nc2)C1` [Example 9], the EC50 was determined as 36 nM and the Emax is 39%.

Turning to `CC1(C)CC(=O)N(c2ccc(C#Cc3ccccc3)nc2)N1` [Example 8, 5,5-Dimethyl-2-(6-phenylethynyl-pyridin-3-yl)-pyrazolidin-3-one], the concentration giving a half-maximal response (EC50) was 62 nM and the Emax was 56%.

Regarding `CC1(C)CC(=O)N(c2ccc(C#Cc3cccc(F)c3)nc2)C1` [Example 7, 1-[6-(3-Fluoro-phenylethynyl)-pyridin-3-yl]-4,4-dimethyl-pyrrolidin-2-one], the 50% effective concentration (EC50) came to 39 nM and the Emax stood at 62%.

For the compound `CC1(C)CC(=O)N(c2ccc(C#Cc3cc(F)ccc3F)nc2)N1` [Example 16, 2-[6-(2,5-Difluoro-phenylethynyl)-pyridin-3-yl]-5,5-dimethyl-pyrazolidin-3-one], the EC50 was 40 nM and the Emax worked out at 41%.

`CN1C(=O)N(c2ccc(C#Cc3cccnc3)nc2)CC1(C)C` [Example 6, 3,4,4-Trimethyl-1-(6-pyridin-3-ylethynyl-pyridin-3-yl)-imidazolidin-2-one]: the 50% effective concentration (EC50) came out at 241 nM and the Emax came out at 36%.

For `CC1(C)CC(=O)N(c2ccc(C#Cc3ccccc3)nc2)C1` [Example 1, 4,4-Dimethyl-1-(6-phenylethynyl-pyridin-3-yl)-pyrrolidin-2-one], the concentration giving a half-maximal response (EC50) turned out to be 49 nM and the Emax came out at 75%.
